Earlier results as cited in patent publication US20260284036A1 (priority 2023, published 2026).

Conditions: administered orally; significant first-pass metabolism

**Q.** With `C=CCN1CC[C@]23c4c5ccc(O)c4O[C@H]2C(=O)CC[C@@]3(O)[C@H]1C5` [naloxone] as the compound, how does the apparent bioavailability read?
**A.** 1-2%
